Target: T1, recombinant human FAK1 (Homo sapiens, UniProt Q05397)
T1 construct: fused on or other part: N-terminal 6xHis tag
Assay: FAK1 HTRF assay
Format: biochemical
Procedure, shortened: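 IC50 values derive from HTRF % inhibition (ratio 665/620 nm, Eu–anti-phosphotyrosine 0.1 nM, SA-APC 12 nM). The kinase step ran 45 min at room temperature, pairing 10 nM His-FAK1(692–end) from baculovirus with 0.5 μM gastrin Tyr87 biotin-peptide and a reagent at 10 μM final, pH 7.4. Compound dilutions began at 10 μM.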

T1 sequence (Q05397 422-680 limits assumed): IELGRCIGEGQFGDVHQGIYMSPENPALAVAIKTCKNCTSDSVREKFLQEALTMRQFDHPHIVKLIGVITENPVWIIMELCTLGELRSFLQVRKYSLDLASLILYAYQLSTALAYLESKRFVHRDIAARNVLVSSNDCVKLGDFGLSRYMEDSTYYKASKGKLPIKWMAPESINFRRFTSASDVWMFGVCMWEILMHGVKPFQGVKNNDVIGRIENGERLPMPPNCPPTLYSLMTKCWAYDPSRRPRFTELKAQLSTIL

IC50, < 20 nM:
O=C1CCc2cc(Nc3ncc4ccn(Cc5cccnc5N5CCCS5(=O)=O)c4n3)ccc2N1 [Example 216]
O=S(=O)(c1cccc2nsnc12)n1ccc2cnc(Nc3ccc(N4CCNCC4)cc3)nc21 [Example 253]
O=C1CCc2cc(Nc3ncc4ccn(S(=O)(=O)c5cccc6cccnc56)c4n3)ccc2N1 [Example 169]
Cc1cc(Nc2ncc3cnn(S(=O)(=O)c4cccc5cccnc45)c3n2)ccc1N1CCNCC1 [Example 332]
Cn1cc(Nc2ncc3ccn(S(=O)(=O)c4cccc5cccnc45)c3n2)cn1 [Example 318]
COc1cc(N2CCNCC2)ccc1Nc1cc2c(ccn2S(=O)(=O)c2cccc3cccnc23)cn1 [Example 330, N-(2-Methoxy-4-(piperazin-1-yl)phenyl)-1-(quinolin-8-ylsulfonyl)-1H-pyrrolo[3,2-c]pyridin-6-amine]
CN(c1ncccc1Cn1ncc2cnc(Nc3ccc4[nH]c(=O)[nH]c4c3)cc21)S(C)(=O)=O [Example 142]
CN(c1ncccc1Cn1ccc2cnc(Nc3ccc(N4CCCC4CO)cc3)nc21)S(C)(=O)=O (centres unmarked) [Example 536]

Reference: patent publication US20160222014A1, “COMPOUNDS FOR REGULATING FAK AND/OR SRC PATHWAYS” (ASANA BIOSCIENCES, LLC, priority 2013, published 2016)
